# Experimental data: paper PMC12195648 (Pharmaceuticals, 2025)
# Test system: HEK-293T cells
# Test: Cytotoxicity, resazurin assay, non-neoplastic HEK-293T
# Format: cell-based
# Details: Homo sapiens, 72 h, GI50 ± SD
# Description: The human cell line KCL22 was sourced from the German Collection of Microorganisms and Cell Cultures, while K562 and HEK-293T cells were obtained from the European Collection of Authenticated Cell Cultures. The development of the KCL22 subclone B8 (T315I, 100%) has been previously detailed. All cell lines were maintained in a humidified incubator at 37 °C and 5% CO2, following the manufacturer’s instructions, in the appropriate medium supplemented with 10% foetal bovine serum, penicillin (100 IU/mL), streptomycin (100 µg/mL), and glutamine (4 mM).
# Cytotoxicity was assessed utilizing resazurin, an indicator dyes that measures oxidation-reduction reactions in the mitochondria of living cells. Cells were seeded into 96-well plates and treated with the compounds for 72 h (six different doses of each compound, in triplicate). After treatment, a solution of resazurin (Merck, Prague, Czech Republic) was added for 4 h, and the fluorescence of resorufin corresponding to viable cell quantity was measured at 544 nm/590 nm (excitation/emission) using a Fluoroskan Ascent microplate reader (LabSystems, Helsinki, Finland).
row,Compound,GI50 [µM]
1,"Cc1ccc(NC(=O)c2ccc(CN3CCN(C)CC3)cc2)cc1Nc1nccc(-c2cccnc2)n1 [imatinib, reference compound]",> 10

# Test system: K562 cells
# Test: Cytotoxicity, resazurin assay, K562
# Format: cell-based, human
# Details: Homo sapiens, K562; 72 h, resazurin, GI50 ± SD
# Description: (§1) The development of the KCL22 subclone B8 (T315I, 100%) has been previously detailed. All cell lines were maintained in a humidified incubator at 37 °C and 5% CO2, following the manufacturer’s instructions, in the appropriate medium supplemented with 10% foetal bovine serum, penicillin (100 IU/mL), streptomycin (100 µg/mL), and glutamine (4 mM).
# (§2) Cytotoxicity was assessed utilizing resazurin, an indicator dyes that measures oxidation-reduction reactions in the mitochondria of living cells. Cells were seeded into 96-well plates and treated with the compounds for 72 h (six different doses of each compound, in triplicate).
row,Compound,GI50 [nM]
1,"Cc1ccc(NC(=O)c2ccc(CN3CCN(C)CC3)cc2)cc1Nc1nccc(-c2cccnc2)n1 [imatinib, reference compound]",230 ± 10

# Test system: Bcr-Abl
# Test: not given
# Details: 58-purine 3D-QSAR database, Table S3; cited from earlier work
row,Compound,pIC50 Exp
1,CC(C)CCn1cnc2c(Nc3ccc(F)c(F)c3)nc(Nc3ccc(N4CCN(CCO)CC4)cc3)nc21 [Compound 55],5.754
2,CC(C)CCn1cnc2c(Nc3ccccc3)nc(Nc3ccc(N4CCN(CCO)CC4)cc3)nc21 [Compound 53],5.907
3,CN1CCN(c2ccc(Nc3nc(Nc4ccc(OC(F)(F)F)c([N+](=O)[O-])c4)c4ncn(CC5CC5)c4n3)cc2)CC1 [Compound 28],6.357
4,CCCCCCn1cnc2c(Nc3ccccc3)nc(Nc3ccc(N4CCN(C)CC4)cc3)nc21 [Compound 38],5.008
5,CCCCCn1cnc2c(Nc3ccccc3)nc(Nc3ccc(N4CCN(C)CC4)cc3)nc21 [Compound 35],5.910
6,CN1CCN(Cc2ccc(Nc3nc(Nc4cccc(F)c4)c4ncn(CC5CC5)c4n3)cc2)CC1 [Compound 45],6.744
7,CN1CCN(C(=O)c2ccc(Nc3nc(Nc4ccc(F)c(F)c4)c4ncn(CC5CC5)c4n3)cc2)CC1 [Compound 31],6.027
8,CN1CCN(c2ccc(Nc3nc(Nc4ccc(Cl)c(F)c4)c4ncn(CC5CC5)c4n3)cc2)CC1 [Compound 27],6.699
9,CN1CCN(c2ccc(Nc3nc(Nc4ccc(F)c(F)c4)c4ncn(CC5CC5)c4n3)cc2F)CC1 [Compound 10],6.237
10,CN1CCN(c2ccc(Nc3nc(Nc4cccc(C#N)c4)c4ncn(CC5CC5)c4n3)cc2)CC1 [Compound 15],7.155
11,CN1CCN(c2ccc(Nc3nc(Nc4ccc([N+](=O)[O-])cc4)c4ncn(CC5CC5)c4n3)cc2)CC1 [Compound 22],6.886
12,Cc1cccc(Nc2nc(Nc3ccc(N4CCN(C)CC4)cc3)nc3c2ncn3CC2CC2)c1 [Compound 16],7.000
13,OCCN1CCN(c2ccc(Nc3nc(Nc4ccc(F)c(F)c4)c4ncn(CC5CC5)c4n3)cc2)CC1 [Compound 52],7.703
14,CN1CCN(c2ccc(Nc3nc(Nc4cccc([N+](=O)[O-])c4)c4ncn(CC5CC5)c4n3)cc2)CC1 [Compound 20],6.770
15,CN1CCN(c2ccc(Nc3nc(NCc4ccccc4)c4ncn(CC5CC5)c4n3)cc2)CC1 [Compound 49],6.076
16,OCCN1CCN(c2ccc(Nc3nc(Nc4cccc(F)c4)c4ncn(CC5CC5)c4n3)cc2)CC1 [VII],7.833
17,CC(C)CCn1cnc2c(Nc3ccc(F)c(F)c3)nc(Nc3ccc(N4CCN(C)CC4)cc3)nc21 [Compound 43],5.642
18,CN1CCN(c2ccc(Nc3nc(Nc4cccc(F)c4)c4ncn(CC5CC5)c4n3)cc2)CC1 [Compound 3],7.398
19,CCCCCCn1cnc2c(Nc3cccc(F)c3)nc(Nc3ccc(N4CCN(CCO)CC4)cc3)nc21 [Compound 57],6.174
20,CCCCCn1cnc2c(Nc3cccc(F)c3)nc(Nc3ccc(N4CCN(C)CC4)cc3)nc21 [Compound 42],6.187
21,CN1CCN(c2ccc(Nc3nc(Nc4ccc(F)c(F)c4)c4ncn(CC5CC5)c4n3)cc2)CC1 [Compound 4],7.398
22,CN1CCN(C(=O)c2ccc(Nc3nc(Nc4ccccc4)c4ncn(CC5CC5)c4n3)cc2)CC1 [Compound 29],5.917
23,CN1CCN(c2ccc(Nc3nc(Nc4ccc(Cl)c(Cl)c4)c4ncn(CC5CC5)c4n3)cc2)CC1 [Compound 26],7.155
24,CCCCCCn1cnc2c(Nc3ccc(F)c(F)c3)nc(Nc3ccc(N4CCN(C)CC4)cc3)nc21 [Compound 40],4.469
25,CCCCCCn1cnc2c(Nc3ccccc3)nc(Nc3ccc(N4CCN(CCO)CC4)cc3)nc21 [Compound 56],6.081
26,CN1CCN(c2ccc(Nc3nc(Nc4ccccc4)c4ccn(CC5CC5)c4n3)cc2)CC1 [Compound 44],4.206

row,Compound,pIC50 Exp
1,CN1CCN(c2ccc(Nc3nc(Nc4cccc(Cl)c4)c4ncn(CC5CC5)c4n3)cc2)CC1 [Compound 17],6.921
2,COc1cc(Cl)ccc1Nc1nc(Nc2ccc(N3CCN(C)CC3)c(F)c2)nc2c1ncn2CC1CC1 [Compound 13],5.074
3,CCCCCn1cnc2c(Nc3ccc(F)c(F)c3)nc(Nc3ccc(N4CCN(C)CC4)cc3)nc21 [Compound 37],5.866
4,CN1CCN(c2ccc(Nc3nc(Nc4ccc(C#N)cc4)c4ncn(CC5CC5)c4n3)cc2)CC1 [Compound 23],7.000
5,CN1CCN(c2ccc(Nc3nc(Nc4ccc(OC(F)(F)F)cc4)c4ncn(CC5CC5)c4n3)cc2)CC1 [Compound 21],6.409
6,CN1CCN(c2ccc(Nc3nc(N)c4ncn(CC5CC5)c4n3)cc2)CC1 [Compound 46],5.403
7,CN1CCN(c2ccc(Nc3nc(Nc4ccccc4)c4ncn(CC5CC5)c4n3)cc2F)CC1 [Compound 7],6.237
8,CC(C)CCn1cnc2c(Nc3ccccc3)nc(Nc3ccc(N4CCN(C)CC4)cc3)nc21 [Compound 36],5.750
9,CN1CCN(c2ccc(Nc3nc(Nc4cccc(C(F)(F)F)c4)c4ncn(CC5CC5)c4n3)cc2)CC1 [Compound 18],5.75
10,CC(C)CCn1cnc2c(Nc3cccc(F)c3)nc(Nc3ccc(N4CCN(C)CC4)cc3)nc21 [Compound 34],4.301
11,COc1cc(Cl)ccc1Nc1nc(Nc2ccc(N3CCN(C)CC3)cc2)nc2c1ncn2CC1CC1 [Compound 6],6.097
12,COC(=O)c1ccc(Nc2nc(Nc3ccc(N4CCN(C)CC4)cc3)nc3c2ncn3CC2CC2)cc1 [Compound 24],7.398
13,CN1CCN(c2ccc(Nc3nc(Nc4ccc(F)cc4)c4ncn(CC5CC5)c4n3)cc2F)CC1 [Compound 8],5.971
14,CN1CCN(c2ccc(Nc3nc(Nc4cccc(F)c4)c4ncn(CC5CC5)c4n3)cc2F)CC1 [Compound 9],6.222
15,CN1CCN(c2ccc(Nc3nc(Nc4cccc(OC(F)(F)F)c4)c4ncn(CC5CC5)c4n3)cc2)CC1 [Compound 19],5.939
16,CN1CCN(c2ccc(Nc3nc(NC4CCCCC4)c4ncn(CC5CC5)c4n3)cc2)CC1 [Compound 47],4.956
17,COc1ccc(Nc2nc(Nc3ccc(N4CCN(C)CC4)c(F)c3)nc3c2ncn3CC2CC2)cc1 [Compound 11],6.469
18,CN1CCN(C(=O)c2ccc(Nc3nc(Nc4cccc(F)c4)c4ncn(CC5CC5)c4n3)cc2)CC1 [Compound 30],6.244
19,CCCCCCn1cnc2c(Nc3ccc(F)c(F)c3)nc(Nc3ccc(N4CCN(CCO)CC4)cc3)nc21 [Compound 58],5.775
20,CN1CCN(c2ccc(Nc3nc(Nc4ccccc4F)c4ncn(CC5CC5)c4n3)cc2)CC1 [Compound 14],5.378
21,CN1CCN(c2ccc(Nc3nc(Nc4ccc(F)c(Cl)c4)c4ncn(CC5CC5)c4n3)cc2)CC1 [Compound 25],6.569
22,COc1cc(Nc2nc(Nc3ccc(N4CCN(C)CC4)cc3)nc3c2ncn3CC2CC2)c(OC)cc1Cl [Compound 5],4.444
23,CC(C)CCn1cnc2c(Nc3cccc(F)c3)nc(Nc3ccc(N4CCN(CCO)CC4)cc3)nc21 [Compound 54],6.886
24,CCCCCCCCn1cnc2c(Nc3ccc(F)c(F)c3)nc(Nc3ccc(N4CCN(C)CC4)cc3)nc21 [Compound 32],4.063
25,CN1CCN(Cc2ccc(Nc3nc(Nc4ccc(F)c(F)c4)c4ncn(CC5CC5)c4n3)cc2)CC1 [Compound 48],6.649

# Same assay, conditions: earlier purines of the group; cited from earlier work
row,Compound,IC50 [nM]
1,OCCN1CCN(c2ccc(Nc3nc(Nc4cccc(F)c4)c4ncn(CC5CC5)c4n3)cc2)CC1 [VII],15
2,CN1CCN(c2ccc(Nc3nc(Nc4cccc(C#N)c4)c4ncn(CC5CC5)c4n3)cc2)CC1 [X],70
3,CCCCCCCCn1cnc2c(Nc3ccc(F)c(F)c3)nc(Nc3ccc(N4CCN(C)CC4)cc3)nc21 [Compound 32],86500

# Test system: KCL22 cells
# Test: Cytotoxicity, resazurin assay, KCL22
# Format: cell-based, human
# Details: Homo sapiens, KCL-22; 72 h, resazurin, GI50 ± SD
# Description: as §1, §2
row,Compound,GI50 [µM]
1,"Cc1ccc(NC(=O)c2ccc(CN3CCN(C)CC3)cc2)cc1Nc1nccc(-c2cccnc2)n1 [imatinib, reference compound]",9.26 ± 1
